Measurements from US20140329868A1, “METHODS FOR TREATING HYPERTENSION” (TAKEDA PHARMACEUTICALS U.S.A., INC., priority 2005, published 2014).

Experiments:
[1] = biological target: T1, purine nucleotide phosphorylase (Homo sapiens, UniProt P00491); conditions: at a therapeutically effective amount in a subject; stated as known; cited from earlier work
T1 sequence (P00491 1-289): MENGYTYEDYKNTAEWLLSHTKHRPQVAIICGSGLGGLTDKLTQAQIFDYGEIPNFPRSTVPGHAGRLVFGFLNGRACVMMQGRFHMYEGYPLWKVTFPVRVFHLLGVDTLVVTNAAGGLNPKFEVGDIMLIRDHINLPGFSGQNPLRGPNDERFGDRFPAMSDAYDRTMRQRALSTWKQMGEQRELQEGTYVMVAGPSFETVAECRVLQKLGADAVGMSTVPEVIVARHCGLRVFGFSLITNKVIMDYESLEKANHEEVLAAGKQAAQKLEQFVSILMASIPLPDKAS

[2] = tested on: subjects having a systolic BP≧160 mmHg or diastolic BP≧95 mmHg (elevated blood pressure); assay: Example 3: blood pressure change in subjects with elevated blood pressure, none taking angiotensin antagonists (two double-blind studies); assay type: in vivo, human; conditions: 300/100 mg QD
Description: None of these subjects were taking any angiotensin antagonists, but might have been taking some other type of antihypertensive drug at the baseline (start) of the study. These 187 subjects were part of two (2) DB studies. One study was of 28 weeks in duration during which subjects received 80 mg, 120 mg or 240 mg QD of febuxostat or placebo or allopurinol 300 or 100 mg QD, depending on the subject's renal function. The second study was of 52 weeks in duration during which subjects received 80 mg or 120 mg QD of febuxostat or allopurinol 300 mg QD. Of these 187 subjects, all completed 4 weeks of treatment and 132 completed 28 weeks of treatment. A total of 52 weeks of treatment was completed by 15 subjects in the febuxostat 80 mg QD group, 11 in the febuxostat 120 mg QD group and 22 in the allopurinol 300/100 mg QD group. Because of the shorter duration of one of the 2 DB studies, no subject in the placebo and febuxostat 240 mg QD groups were treated for 52 weeks.

[3] = tested on: subjects having a systolic BP≧160 mmHg or diastolic BP≧95 mmHg (elevated blood pressure); assay: Example 1: blood pressure change in subjects with elevated blood pressure, none taking antihypertensive agents at baseline (two double-blind studies); assay type: in vivo, human; conditions: 300/100 mg QD
Description: A total of 103 subjects (9 in the placebo group, 26 in each the 2-[3-cyano-4-(2-methylpropoxy)phenyl]-4-methylthiazole-5-carboxylic acid (hereinafter referred to as “febuxostat”) 80 mg and 120 mg once daily (hereinafter referred to as “QD”) groups, 10 in the febuxostat 240 mg QD group and 32 in the 4-hydroxy-3,4-pyrazolopyrimidine (hereinafter referred to as “allopurinol”) 300/100 mg QD group), having a systolic BP≧160 mmHg or diastolic BP≧95 mmHg, and thus considered to have “elevated blood pressure”, were examined. Allopurinol […] xanthine oxidoreductase inhibitor.
None of the above subjects were taking any antihypertensive agents at the baseline (start) of the study. These […] subjects were part of two (2) double-blind (hereinafter referred to as “DB”) studies. One study was of 28 weeks in duration. During this time, the subjects received 80 mg, 120 mg or 240 mg QD of febuxostat, placebo or allopurinol 300 or 100 mg QD, depending on the subject's renal function. The second study was 52 weeks in duration. During this time, the subjects received 80 mg or 120 mg QD of febuxostat or allopurinol 300 mg QD.

[4] = tested on: subjects having a systolic BP≧160 mmHg or diastolic BP≧95 mmHg (elevated blood pressure); assay: Example 2: blood pressure change in subjects with elevated blood pressure, none taking angiotensin-converting enzyme inhibitors (two double-blind studies); assay type: in vivo, human; conditions: 300/100 mg QD
Description: None of these subjects were taking any angiotensin-coverting enzyme inhibitors, but might have been taking some other type of antihypertensive drug at the baseline (start) of the study. These 158 subjects were part of two (2) DB studies. One study was of 28 weeks in duration during which subjects received 80 mg, 120 mg or 240 mg QD of febuxostat or placebo or allopurinol 300 or 100 mg QD, depending on the subject's renal function. The second study was 52 weeks in duration during which subjects received 80 mg or 120 mg QD of febuxostat or allopurinol 300 mg QD. […] A total of 52 weeks of treatment was completed by 15 subjects in the febuxostat 80 mg QD group, 9 in the febuxostat 120 mg QD group and 17 in the allopurinol 300/100 mg QD group. Because of the shorter duration of one of the two DB studies, no subject in the placebo and febuxostat 240 mg QD groups was treated for 52 weeks.

[5] = biological target: orotidine-5-monophosphate decarboxylase (Homo sapiens, UniProt P11172); conditions: at a therapeutically effective amount in a subject; stated as known; cited from earlier work
orotidine-5-monophosphate decarboxylase, sequence (P11172 whole entry): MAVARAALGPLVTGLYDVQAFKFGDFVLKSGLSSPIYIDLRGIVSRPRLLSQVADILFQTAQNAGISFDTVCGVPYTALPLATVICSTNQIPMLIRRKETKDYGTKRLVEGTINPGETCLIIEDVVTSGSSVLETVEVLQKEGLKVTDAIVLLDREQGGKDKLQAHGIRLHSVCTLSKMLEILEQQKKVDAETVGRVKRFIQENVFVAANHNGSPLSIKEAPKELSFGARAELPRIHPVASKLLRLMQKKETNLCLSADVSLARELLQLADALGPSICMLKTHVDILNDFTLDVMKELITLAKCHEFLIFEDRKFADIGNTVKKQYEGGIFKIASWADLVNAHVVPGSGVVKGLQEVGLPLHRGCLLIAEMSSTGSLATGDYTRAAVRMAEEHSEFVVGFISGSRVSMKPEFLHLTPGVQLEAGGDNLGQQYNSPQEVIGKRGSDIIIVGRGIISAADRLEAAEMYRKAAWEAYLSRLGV

In the case of `Oc1ncnc2[nH]ncc12` [allopurinol, 4-hydroxy-3,4-pyrazolopyrimidine], the “effect on the activity of purine nucleotide phosphorylase” value [1] is given as “has an effect”, the “mean change from baseline for diastolic BP” value ([2]; after 4 weeks of treatment) is given as −5.7 mmHg and the “mean change from baseline for mean arterial BP” value ([2]; after 4 weeks of treatment) is given as −6.1 mmHg. The “mean change from baseline for systolic BP” value ([2]; after 4 weeks of treatment) was −7.0 mmHg, the “mean change from baseline for diastolic BP” value ([2]; after 28 weeks of treatment) was −8.7 mmHg and the “mean change from baseline for mean arterial BP” value ([2]; after 28 weeks of treatment) was −8.8 mmHg. The “mean change from baseline for systolic BP” value ([2]; after 28 weeks of treatment) was −9.0 mmHg, the “mean change from baseline for diastolic BP” value ([2]; after 52 weeks of treatment) was −11.6 mmHg and the “mean change from baseline for mean arterial BP” value ([2]; after 52 weeks of treatment) was −11.1 mmHg. For the same compound, the “mean change from baseline for systolic BP” value ([2]; after 52 weeks of treatment) was −10.0 mmHg, the “mean change from baseline for diastolic BP” value ([3]; after 4 weeks of treatment) was −6.3 mmHg and the “mean change from baseline for mean arterial BP” value ([3]; after 4 weeks of treatment) was −6.8 mmHg. For the same compound, the “mean change from baseline for systolic BP” value ([3]; after 4 weeks of treatment) was −7.7 mmHg, the “mean change from baseline for diastolic BP” value ([3]; after 28 weeks of treatment) was −8.2 mmHg and the “mean change from baseline for mean arterial BP” value ([3]; after 28 weeks of treatment) was −7.8 mmHg. For the same compound, the “mean change from baseline for systolic BP” value ([3]; after 28 weeks of treatment) was −7.0 mmHg, the “mean change from baseline for diastolic BP” value ([3]; after 52 weeks of treatment) was −10.9 mmHg and the “mean change from baseline for mean arterial BP” value ([3]; after 52 weeks of treatment) was −10.4 mmHg. For the same compound, the “mean change from baseline for systolic BP” value ([3]; after 52 weeks of treatment) was −9.4 mmHg, the “mean change from baseline for diastolic BP” value ([4]; after 4 weeks of treatment) was −6.7 mmHg and the “mean change from baseline for mean arterial BP” value ([4]; after 4 weeks of treatment) was −6.7 mmHg. For the same compound, the “mean change from baseline for systolic BP” value ([4]; after 4 weeks of treatment) was −6.6 mmHg, the “mean change from baseline for diastolic BP” value ([4]; after 28 weeks of treatment) was −10.1 mmHg and the “mean change from baseline for mean arterial BP” value ([4]; after 28 weeks of treatment) was −9.8 mmHg. The “mean change from baseline for systolic BP” value ([4]; after 28 weeks of treatment) was −9.1 mmHg, the “mean change from baseline for diastolic BP” value ([4]; after 52 weeks of treatment) was −11.4 mmHg and the “mean change from baseline for mean arterial BP” value ([4]; after 52 weeks of treatment) was −10.8 mmHg. For the same compound, the “mean change from baseline for systolic BP” value ([4]; after 52 weeks of treatment) was −9.5 mmHg and the “effect on the activity of orotidine-5-monophosphate decarboxylase” value [5] was “has an effect”.
